According to BindingDB's records for doi:10.1016/j.chembiol.2003.08.010 (Brigham and Women's Hospital, 2003):

What was measured:
[1] = molecular target: T1, Ubiquitin carboxyl-terminal hydrolase isozyme L1 (Mus musculus, UniProt Q9R0P9); assay: Inhibition Activity Assay; settings: pH 7.6; 25 °C
T1 sequence (Q9R0P9 whole entry): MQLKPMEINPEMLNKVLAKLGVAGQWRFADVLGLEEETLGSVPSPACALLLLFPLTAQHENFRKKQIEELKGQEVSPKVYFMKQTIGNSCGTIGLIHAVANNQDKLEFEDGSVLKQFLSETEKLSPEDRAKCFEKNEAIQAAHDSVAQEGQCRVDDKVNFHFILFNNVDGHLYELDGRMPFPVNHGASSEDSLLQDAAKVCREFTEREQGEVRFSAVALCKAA
Description: (§1) Inhibition activity and selectivity for UCH-L1 and UCH-L3.

[2] = molecular target: T2, Ubiquitin carboxyl-terminal hydrolase isozyme L3 (Mus musculus, UniProt Q9JKB1); assay: Inhibition Activity Assay; settings: pH 7.6; 25 °C
T2 sequence (Q9JKB1 whole entry): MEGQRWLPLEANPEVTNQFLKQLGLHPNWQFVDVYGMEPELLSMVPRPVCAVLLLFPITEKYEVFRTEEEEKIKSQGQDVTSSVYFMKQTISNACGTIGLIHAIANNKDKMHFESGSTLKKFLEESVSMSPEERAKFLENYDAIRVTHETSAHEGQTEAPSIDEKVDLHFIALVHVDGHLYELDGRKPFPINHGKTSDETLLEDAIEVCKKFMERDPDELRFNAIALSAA
Description: as §1

Question: What does the source list for `COc1ccc(NC(=O)c2[nH]cnc2C(=O)N[C@@H](CC(C)C)C(=O)OC(C)(C)C)cc1` [(2S)-2-[[4-[(4-methoxyphenyl)carbamoyl]-1H-imidazole-5-carbonyl]amino]-4-methyl-valeric acid tert-butyl ester]?
Answer: IC50 [1]: 27 µM; IC50 [2]: 48 µM

Question: With `CC(C)(C)OC(=O)NCCCC[C@H](NC(=O)c1[nH]cnc1C(=O)Nc1ccc(Cl)cc1)C(=O)OC(C)(C)C` [(2S)-2-[[[4-[(4-chloroanilino)-oxomethyl]-1H-imidazol-5-yl]-oxomethyl]amino]-6-[[(2-methylpropan-2-yl)oxy-oxomethyl]amino]hexanoic acid tert-butyl ester] as the compound, how does the IC50 [1] read?
Answer: 19 µM

Question: What about the IC50 [2] of the same compound?
Answer: 58 µM

Question: Which IC50 [1] does the source give for `Cc1ccc(NC(=O)c2[nH]cnc2C(=O)N[C@@H](CCCCNC(=O)OC(C)(C)C)C(=O)OC(C)(C)C)cc1` [(2S)-6-(tert-butoxycarbonylamino)-2-[[4-(p-tolylcarbamoyl)-1H-imidazole-5-carbonyl]amino]hexanoic acid tert-butyl ester] here?
Answer: 6 µM

Question: What about the IC50 [2] of the same compound?
Answer: 32 µM

Question: Which IC50 [1] does the source give for `CCC1=NN(C(=O)c2ccccc2O)C(O)(c2ccccc2)C1` (stereo not drawn) [(3-ethyl-5-hydroxy-5-phenyl-4H-pyrazol-1-yl)-(2-hydroxyphenyl)methanone] here?
Answer: 3.4 µM

Question: And the IC50 [2]?
Answer: 72 µM

Question: `Oc1ccc(Oc2ccc(Oc3ccc(O)cc3)cc2)cc1` [MLS001162917] was tested. Which IC50 [1] did it give?
Answer: 3.4 µM

Question: What about the IC50 [2] of the same compound?
Answer: 47 µM

Question: How did the IC50 [1] turn out when `CCCCn1c(=O)c(C(=O)NCc2ccccc2Cl)c(O)c2ccccc21` [MLS001202596] was run?
Answer: 17 µM

Question: What about the IC50 [2] of the same compound?
Answer: 41 µM

Question: Which results are given for `Cc1nc(N=NC(C)c2ccc(Br)cc2)cc(N2CCCCC2)n1` (stereo not drawn) [N-[1-(4-bromophenyl)ethylideneamino]-2-methyl-6-piperidin-1-ylpyrimidin-4-amine]?
Answer: IC50 [1]: 2.6 µM; IC50 [2]: 16 µM

Question: `COc1ccc(N(CC(=O)NCCSCc2cccc(Cl)c2)S(C)(=O)=O)cc1Cl` [N-[2-[(3-chlorobenzyl)thio]ethyl]-2-(3-chloro-N-mesyl-4-methoxy-anilino)acetamide] was tested. Which IC50 [1] did it give?
Answer: 1.3 µM

Question: What about the IC50 [2] of the same compound?
Answer: 22 µM

Question: What does the source list for `CC(C)(C)OC(=O)[C@H](Cc1ccccc1)NC(=O)c1[nH]cnc1C(=O)Nc1ccc(Cl)cc1` [SMR000465882]?
Answer: IC50 [1]: 16 µM; IC50 [2]: 24 µM

Question: For `COc1ccc(-n2c(C=Cc3ccc(O)c(OC)c3)nc3ccccc3c2=O)cc1` [SMR000516541], which IC50 [1] is on record?
Answer: 12 µM

Question: And the IC50 [2]?
Answer: 52 µM

Question: Which results are given for `CC1=CC(=O)c2ccccc2C1=O` [Vitamin K3]?
Answer: IC50 [1]: 290 µM; IC50 [2]: 71 µM

Question: With `Cc1cccc(NC(=O)c2nc[nH]c2C(=O)N[C@@H](CC(C)C)C(=O)OCc2ccccc2)c1` [benzyl (2S)-4-methyl-2-[[4-[(3-methylphenyl)carbamoyl]-1H-imidazole-5-carbonyl]amino]pentanoate] as the compound, how does the IC50 [1] read?
Answer: 12 µM

Question: What about the IC50 [2] of the same compound?
Answer: 33 µM

Question: `CCOC(=O)C1=C(C)N=c2s/c(=C\c3ccc(O)c([N+](=O)[O-])c3)c(=O)n2C1c1ccccc1OC` (stereo not drawn) [ethyl 2-[(4-hydroxy-3-nitrophenyl)methylidene]-5-(2-methoxyphenyl)-7-methyl-3-oxo-5H-[1,3]thiazolo[3,2-a]pyrimidine-6-carboxylate] was tested. Which IC50 [1] did it give?
Answer: 1.8 µM

Question: What about the IC50 [2] of the same compound?
Answer: 40 µM

Question: For `Cc1cccc(NC(=O)c2nc[nH]c2C(=O)N[C@@H](Cc2ccccc2)C(=O)OC(C)(C)C)c1` [tert-butyl (2S)-2-[[4-[(3-methylphenyl)carbamoyl]-1H-imidazole-5-carbonyl]amino]-3-phenylpropanoate], which IC50 [1] is on record?
Answer: 12 µM

Question: What about the IC50 [2] of the same compound?
Answer: 52 µM
